Literature values as cited in article PMC12860872, “Preclinical evaluation of DOTAGA.Glu.(FAPI)2 and DO3A.Glu.(FAPI)2 as theranostics with human dosimetry extrapolation to lutetium-177 and terbium-161 analogs” (European Journal of Nuclear Medicine and Molecular Imaging, 2025).

Columns and labels:
FAP = test system: FAP; parameters: method as in Martin et al. 2023 (15); settings: enzymatic assay; ref Martin et al. 2023 (15); cited from earlier work
DPP8 = test system: DPP8; parameters: method as in Martin et al. 2023 (15); settings: ref Martin et al. 2023 (15); cited from earlier work

In the case of N#C[C@@H]1CC(F)(F)CN1C(=O)CNC(=O)c1ccnc2ccccc12 [UAMC-1110, reference compound], the IC50 (FAP) is given as 0.43 ± 0.02 nM and the IC50 (DPP8) is given as > 10000 nM.
